Laboratory results: ChEMBL document CHEMBL4507303, “Data for DCP probe TP-004” (2021)

Legend:
[1] = target: Non-receptor tyrosine-protein kinase TYK2 (Homo sapiens) (UniProt P29597); details: Compound concentration 1000.0 nM
[2] = target: Tyrosine-protein kinase CSK (Homo sapiens) (UniProt P41240); details: Compound concentration 1000.0 nM
[3] = target: Protein-tyrosine kinase 6 (Homo sapiens) (UniProt Q13882); details: Compound concentration 1000.0 nM
[4] = target: NUAK family SNF1-like kinase 1 (Homo sapiens) (UniProt O60285); details: Compound concentration 1000.0 nM
[5] = system: Phosphatidylinositol 4,5-bisphosphate 3-kinase catalytic subunit alpha isoform (Homo sapiens), P42336 [M1043I]; details: Compound concentration 1000.0 nM
[6] = target: Proto-oncogene tyrosine-protein kinase Src (Homo sapiens) (UniProt P12931); details: Compound concentration 1000.0 nM
[7] = target: Rho-associated protein kinase 1 (Homo sapiens) (UniProt Q13464); details: Compound concentration 1000.0 nM
[8] = system: Phosphatidylinositol 4,5-bisphosphate 3-kinase catalytic subunit alpha isoform (Homo sapiens), P42336 [Q546K]; details: Compound concentration 1000.0 nM
[9] = target: MAP/microtubule affinity-regulating kinase 3 (Homo sapiens) (UniProt P27448); details: Compound concentration 1000.0 nM
[10] = target: Vascular endothelial growth factor receptor 2 (Homo sapiens) (UniProt P35968); details: Compound concentration 1000.0 nM
[11] = target: Ribosomal protein S6 kinase alpha-2 (Homo sapiens) (UniProt Q15349); details: Compound concentration 1000.0 nM
[12] = target: Serine/threonine-protein kinase PAK 4 (Homo sapiens) (UniProt O96013); details: Compound concentration 1000.0 nM
[13] = target: Phosphatidylinositol 4-phosphate 5-kinase type-1 alpha (Homo sapiens) (UniProt Q99755); details: Compound concentration 1000.0 nM
[14] = target: Cyclin-dependent kinase 11A (Homo sapiens) (UniProt Q9UQ88); details: Compound concentration 1000.0 nM
[15] = target: Serine/threonine-protein kinase PAK 6 (Homo sapiens) (UniProt Q9NQU5); details: Compound concentration 1000.0 nM
[16] = target: Serine/threonine-protein kinase WNK1 (Homo sapiens) (UniProt Q9H4A3); details: Compound concentration 1000.0 nM
[17] = target: Fibroblast growth factor receptor 2 (Homo sapiens) (UniProt P21802); details: Compound concentration 1000.0 nM
[18] = target: Calcium-dependent protein kinase 1 (Plasmodium falciparum) (UniProt P62344); details: Compound concentration 1000.0 nM
[19] = target: Tyrosine-protein kinase Tec (Homo sapiens) (UniProt P42680); details: Compound concentration 1000.0 nM
[20] = system: Epidermal growth factor receptor (Homo sapiens), P00533 [UNDEFINED MUTATION]; details: Compound concentration 1000.0 nM
[21] = target: Homeodomain-interacting protein kinase 4 (Homo sapiens) (UniProt Q8NE63); details: Compound concentration 1000.0 nM
[22] = target: Mitogen-activated protein kinase kinase kinase 13 (Homo sapiens) (UniProt O43283); details: Compound concentration 1000.0 nM
[23] = target: T1, GABA-A receptor; anion channel (Rattus norvegicus) (UniProt O09028+P15431+P18506+P18508+P19969+P20236+P23574+P23576+P28471+P28473+P30191+P62813+P63079+P63138+Q91ZM7+Q9ES14); details: Compound concentration 10.0 uM
[24] = target: Serine/threonine-protein kinase 17A (Homo sapiens) (UniProt Q9UEE5); details: Compound concentration 1000.0 nM
[25] = target: Aurora kinase C (Homo sapiens) (UniProt Q9UQB9); details: Compound concentration 1000.0 nM
[26] = target: Mast/stem cell growth factor receptor Kit (Homo sapiens) (UniProt P10721); details: Compound concentration 1000.0 nM
[27] = target: Tyrosine-protein kinase Blk (Homo sapiens) (UniProt P51451); details: Compound concentration 1000.0 nM
[28] = target: Dual specificity mitogen-activated protein kinase kinase 4 (Homo sapiens) (UniProt P45985); details: Compound concentration 1000.0 nM
[29] = target: Serine/threonine-protein kinase PAK 1 (Homo sapiens) (UniProt Q13153); details: Compound concentration 1000.0 nM
[30] = system: Epidermal growth factor receptor (Homo sapiens), P00533 [T790M]; details: Compound concentration 1000.0 nM
[31] = target: Dual specificity mitogen-activated protein kinase kinase 5 (Homo sapiens) (UniProt Q13163); details: Compound concentration 1000.0 nM
[32] = target: Serine/threonine-protein kinase pim-3 (Homo sapiens) (UniProt Q86V86); details: Compound concentration 1000.0 nM
[33] = target: Calcium/calmodulin-dependent protein kinase type II subunit alpha (Homo sapiens) (UniProt Q9UQM7); details: Compound concentration 1000.0 nM
[34] = target: Serine/threonine-protein kinase Sgk3 (Homo sapiens) (UniProt Q96BR1); details: Compound concentration 1000.0 nM
[35] = target: RAF proto-oncogene serine/threonine-protein kinase (Homo sapiens) (UniProt P04049); details: Compound concentration 1000.0 nM
[36] = target: T1, GABA-A receptor; anion channel (Rattus norvegicus); details: Compound concentration 10.0 uM; remark: listed apart in the source
[37] = target: Myosin-IIIb (Homo sapiens) (UniProt Q8WXR4); details: Compound concentration 1000.0 nM
[38] = target: Activin receptor type-1 (Homo sapiens) (UniProt Q04771); details: Compound concentration 1000.0 nM
[39] = target: Casein kinase I isoform alpha-like (Homo sapiens) (UniProt Q8N752); details: Compound concentration 1000.0 nM
[40] = target: Epithelial discoidin domain-containing receptor 1 (Homo sapiens) (UniProt Q08345); details: Compound concentration 1000.0 nM
[41] = target: Protein kinase C iota type (Homo sapiens) (UniProt P41743); details: Compound concentration 1000.0 nM
[42] = target: Calcium/calmodulin-dependent protein kinase type II subunit beta (Homo sapiens) (UniProt Q13554); details: Compound concentration 1000.0 nM

Calcium-dependent protein kinase 1 (Plasmodium falciparum), sequence (P62344 2-524 limits assumed): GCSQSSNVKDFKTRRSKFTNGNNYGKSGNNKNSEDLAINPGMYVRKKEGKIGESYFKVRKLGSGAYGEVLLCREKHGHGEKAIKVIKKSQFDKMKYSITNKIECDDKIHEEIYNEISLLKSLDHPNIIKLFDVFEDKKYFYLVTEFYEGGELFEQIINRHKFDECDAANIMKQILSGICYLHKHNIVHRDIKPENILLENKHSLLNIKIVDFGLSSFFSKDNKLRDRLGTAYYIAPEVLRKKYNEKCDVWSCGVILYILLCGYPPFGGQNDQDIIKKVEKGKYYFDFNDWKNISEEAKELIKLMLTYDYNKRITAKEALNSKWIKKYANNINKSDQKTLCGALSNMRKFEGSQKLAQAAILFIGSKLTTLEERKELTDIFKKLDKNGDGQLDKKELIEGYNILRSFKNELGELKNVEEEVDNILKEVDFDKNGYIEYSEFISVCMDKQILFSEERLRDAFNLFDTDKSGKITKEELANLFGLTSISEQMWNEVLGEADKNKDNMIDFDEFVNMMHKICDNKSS
Serine/threonine-protein kinase Sgk3 (Homo sapiens), sequence (Q96BR1 whole entry): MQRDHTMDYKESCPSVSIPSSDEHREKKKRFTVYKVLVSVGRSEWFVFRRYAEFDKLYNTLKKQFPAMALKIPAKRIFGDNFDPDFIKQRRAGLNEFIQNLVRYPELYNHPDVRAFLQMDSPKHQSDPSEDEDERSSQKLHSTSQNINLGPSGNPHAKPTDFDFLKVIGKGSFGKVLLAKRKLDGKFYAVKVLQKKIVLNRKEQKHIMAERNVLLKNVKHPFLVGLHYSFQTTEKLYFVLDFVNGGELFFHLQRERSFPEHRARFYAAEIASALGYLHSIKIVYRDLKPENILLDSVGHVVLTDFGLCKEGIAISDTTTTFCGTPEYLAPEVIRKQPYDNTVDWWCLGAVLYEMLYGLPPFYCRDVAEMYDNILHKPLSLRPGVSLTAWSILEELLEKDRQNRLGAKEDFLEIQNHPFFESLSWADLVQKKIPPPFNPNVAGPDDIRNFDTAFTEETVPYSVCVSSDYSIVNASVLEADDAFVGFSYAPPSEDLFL
Phosphatidylinositol 4,5-bisphosphate 3-kinase catalytic subunit alpha isoform (Homo sapiens), P42336 [Q546K], sequence (P42336 whole entry Q546K, canonical isoform): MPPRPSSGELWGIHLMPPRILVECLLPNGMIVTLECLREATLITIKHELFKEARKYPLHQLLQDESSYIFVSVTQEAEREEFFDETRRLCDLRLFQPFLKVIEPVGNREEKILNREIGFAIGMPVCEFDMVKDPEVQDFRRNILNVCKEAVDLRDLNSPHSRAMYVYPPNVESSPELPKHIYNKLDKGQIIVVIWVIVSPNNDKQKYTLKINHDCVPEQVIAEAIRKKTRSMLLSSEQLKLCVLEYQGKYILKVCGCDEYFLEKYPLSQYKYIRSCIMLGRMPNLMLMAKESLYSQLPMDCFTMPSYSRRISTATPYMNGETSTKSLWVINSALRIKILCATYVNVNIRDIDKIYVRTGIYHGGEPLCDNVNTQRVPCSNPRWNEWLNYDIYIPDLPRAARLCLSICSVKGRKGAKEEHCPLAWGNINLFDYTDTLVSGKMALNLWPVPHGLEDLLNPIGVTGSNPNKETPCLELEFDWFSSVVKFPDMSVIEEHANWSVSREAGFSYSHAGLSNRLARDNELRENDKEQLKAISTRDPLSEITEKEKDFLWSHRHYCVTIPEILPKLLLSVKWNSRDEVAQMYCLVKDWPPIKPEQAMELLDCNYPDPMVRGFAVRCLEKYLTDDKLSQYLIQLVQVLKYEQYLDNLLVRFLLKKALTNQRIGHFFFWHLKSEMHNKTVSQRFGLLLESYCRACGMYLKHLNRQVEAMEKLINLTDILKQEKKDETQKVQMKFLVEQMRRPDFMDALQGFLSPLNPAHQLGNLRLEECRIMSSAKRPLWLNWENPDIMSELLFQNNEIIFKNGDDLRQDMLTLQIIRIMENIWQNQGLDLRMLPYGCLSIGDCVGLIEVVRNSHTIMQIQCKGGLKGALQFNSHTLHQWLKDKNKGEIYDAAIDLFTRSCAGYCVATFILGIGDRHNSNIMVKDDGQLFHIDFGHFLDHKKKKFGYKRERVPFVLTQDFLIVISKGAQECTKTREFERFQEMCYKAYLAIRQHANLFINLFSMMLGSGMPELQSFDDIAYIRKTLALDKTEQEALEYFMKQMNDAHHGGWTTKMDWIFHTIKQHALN
RAF proto-oncogene serine/threonine-protein kinase (Homo sapiens), sequence (P04049 whole entry): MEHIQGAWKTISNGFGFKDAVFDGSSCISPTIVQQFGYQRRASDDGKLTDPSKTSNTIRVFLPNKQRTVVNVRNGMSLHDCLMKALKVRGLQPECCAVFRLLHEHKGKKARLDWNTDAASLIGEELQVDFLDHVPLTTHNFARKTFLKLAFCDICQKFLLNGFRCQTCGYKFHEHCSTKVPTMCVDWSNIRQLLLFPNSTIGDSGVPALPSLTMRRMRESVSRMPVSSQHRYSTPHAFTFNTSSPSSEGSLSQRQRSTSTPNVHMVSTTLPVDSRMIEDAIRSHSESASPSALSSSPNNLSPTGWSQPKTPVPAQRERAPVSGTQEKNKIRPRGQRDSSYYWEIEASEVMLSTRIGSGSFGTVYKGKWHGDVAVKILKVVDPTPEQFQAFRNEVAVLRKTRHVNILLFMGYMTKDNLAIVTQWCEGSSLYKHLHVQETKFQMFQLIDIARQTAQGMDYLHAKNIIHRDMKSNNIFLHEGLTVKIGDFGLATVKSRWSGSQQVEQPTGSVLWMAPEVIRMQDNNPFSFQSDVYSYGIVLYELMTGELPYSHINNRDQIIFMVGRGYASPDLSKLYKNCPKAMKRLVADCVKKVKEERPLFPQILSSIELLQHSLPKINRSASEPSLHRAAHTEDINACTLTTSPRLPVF
Protein-tyrosine kinase 6 (Homo sapiens), sequence (Q13882 whole entry, looked up): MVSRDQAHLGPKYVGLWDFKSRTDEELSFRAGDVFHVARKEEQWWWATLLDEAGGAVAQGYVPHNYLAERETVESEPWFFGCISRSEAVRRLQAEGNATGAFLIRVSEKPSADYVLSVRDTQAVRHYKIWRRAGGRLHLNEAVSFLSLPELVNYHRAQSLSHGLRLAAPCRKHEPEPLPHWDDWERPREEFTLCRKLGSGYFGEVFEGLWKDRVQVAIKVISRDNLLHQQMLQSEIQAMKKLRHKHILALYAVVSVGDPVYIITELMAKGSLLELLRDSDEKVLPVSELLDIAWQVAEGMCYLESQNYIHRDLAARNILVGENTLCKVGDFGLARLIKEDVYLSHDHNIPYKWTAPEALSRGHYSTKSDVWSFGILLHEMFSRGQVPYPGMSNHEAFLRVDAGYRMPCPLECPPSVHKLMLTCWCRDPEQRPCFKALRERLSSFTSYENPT
MAP/microtubule affinity-regulating kinase 3 (Homo sapiens), sequence (P27448 whole entry, looked up): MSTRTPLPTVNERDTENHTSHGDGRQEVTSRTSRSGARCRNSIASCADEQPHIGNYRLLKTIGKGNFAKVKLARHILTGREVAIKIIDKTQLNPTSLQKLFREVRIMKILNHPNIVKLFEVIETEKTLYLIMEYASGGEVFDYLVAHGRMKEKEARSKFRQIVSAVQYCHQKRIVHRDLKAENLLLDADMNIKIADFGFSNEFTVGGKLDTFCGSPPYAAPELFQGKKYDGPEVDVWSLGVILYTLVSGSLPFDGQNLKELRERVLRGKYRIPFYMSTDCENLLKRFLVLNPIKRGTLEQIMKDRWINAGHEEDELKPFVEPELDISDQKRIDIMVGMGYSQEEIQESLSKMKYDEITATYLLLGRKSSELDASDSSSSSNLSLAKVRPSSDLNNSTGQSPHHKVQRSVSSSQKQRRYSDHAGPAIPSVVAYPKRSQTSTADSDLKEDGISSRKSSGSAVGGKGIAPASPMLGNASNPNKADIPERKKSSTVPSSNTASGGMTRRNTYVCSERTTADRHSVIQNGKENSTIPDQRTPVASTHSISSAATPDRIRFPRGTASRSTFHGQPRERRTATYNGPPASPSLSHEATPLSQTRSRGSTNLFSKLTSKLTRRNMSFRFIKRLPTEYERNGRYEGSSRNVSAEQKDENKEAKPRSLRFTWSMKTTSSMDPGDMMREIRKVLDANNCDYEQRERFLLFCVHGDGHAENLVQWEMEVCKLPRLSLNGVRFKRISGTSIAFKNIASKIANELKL
Tyrosine-protein kinase Tec (Homo sapiens), sequence (P42680 whole entry): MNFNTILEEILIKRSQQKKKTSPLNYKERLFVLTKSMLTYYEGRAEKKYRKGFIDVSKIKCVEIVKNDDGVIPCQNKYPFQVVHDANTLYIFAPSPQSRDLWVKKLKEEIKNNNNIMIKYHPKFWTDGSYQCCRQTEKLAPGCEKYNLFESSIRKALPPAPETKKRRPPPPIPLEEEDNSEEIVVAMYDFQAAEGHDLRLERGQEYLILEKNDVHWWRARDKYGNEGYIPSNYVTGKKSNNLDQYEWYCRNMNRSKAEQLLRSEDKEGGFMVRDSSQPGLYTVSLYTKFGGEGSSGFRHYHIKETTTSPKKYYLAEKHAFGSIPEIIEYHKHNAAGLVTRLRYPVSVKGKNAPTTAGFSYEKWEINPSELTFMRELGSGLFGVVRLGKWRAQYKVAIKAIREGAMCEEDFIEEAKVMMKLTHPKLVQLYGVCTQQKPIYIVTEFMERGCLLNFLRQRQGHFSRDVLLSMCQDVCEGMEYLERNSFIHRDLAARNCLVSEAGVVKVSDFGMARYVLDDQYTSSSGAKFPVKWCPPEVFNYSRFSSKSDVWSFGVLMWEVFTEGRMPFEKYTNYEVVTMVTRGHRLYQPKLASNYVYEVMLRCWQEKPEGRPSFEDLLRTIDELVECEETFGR
Dual specificity mitogen-activated protein kinase kinase 5 (Homo sapiens), sequence (Q13163 whole entry): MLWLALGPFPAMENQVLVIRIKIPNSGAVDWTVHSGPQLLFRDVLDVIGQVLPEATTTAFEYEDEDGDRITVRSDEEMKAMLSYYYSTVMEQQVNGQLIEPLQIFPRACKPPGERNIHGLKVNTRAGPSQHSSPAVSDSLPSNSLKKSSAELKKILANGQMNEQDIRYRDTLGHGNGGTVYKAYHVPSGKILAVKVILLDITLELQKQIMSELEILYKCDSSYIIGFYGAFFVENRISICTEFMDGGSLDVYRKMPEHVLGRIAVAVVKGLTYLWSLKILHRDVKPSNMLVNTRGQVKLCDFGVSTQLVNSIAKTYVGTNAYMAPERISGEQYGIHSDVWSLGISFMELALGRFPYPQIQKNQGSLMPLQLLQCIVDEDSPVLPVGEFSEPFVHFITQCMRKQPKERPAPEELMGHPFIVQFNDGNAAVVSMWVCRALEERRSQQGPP

How did the residual activity [1] turn out when `Cc1nc(N2CC[C@@H](O)C2)ncc1-c1cc(C(F)(F)F)cc2[nH]ncc12` [TP-004] was run?
Its residual activity is 58%.

What about the residual activity [2] of the same compound?
Its residual activity is 100%.

And the residual activity [3]?
Its residual activity is 89%.

And the residual activity [4]?
Its residual activity is 83%.

And the residual activity [5]?
Its residual activity is 100%.

What about the residual activity [6] of the same compound?
The residual activity was 95%.

And the residual activity [7]?
The residual activity was 91%.

What about the residual activity [8] of the same compound?
The residual activity was 82%.

And the residual activity [9]?
Its residual activity is 100%.

And the residual activity [10]?
Its residual activity is 53%.

What about the residual activity [11] of the same compound?
The residual activity was 100%.

And the residual activity [12]?
The residual activity was 100%.

And the residual activity [13]?
The residual activity was 86%.

And the residual activity [14]?
The residual activity was 100%.

And the residual activity [15]?
The residual activity was 100%.

And the residual activity [16]?
Its residual activity is 71%.

And the residual activity [17]?
Its residual activity is 100%.

And the residual activity [18]?
The residual activity was 100%.

And the residual activity [19]?
Its residual activity is 84%.

And the residual activity [20]?
Its residual activity is 90%.

And the residual activity [21]?
The residual activity was 82%.

And the residual activity [22]?
The residual activity was 56%.

And the inhibition [23]?
Its inhibition is 54.3%.

What about the residual activity [24] of the same compound?
The residual activity was 100%.

And the residual activity [25]?
The residual activity was 100%.

And the residual activity [26]?
The residual activity was 89%.

What about the residual activity [27] of the same compound?
The residual activity was 100%.

What about the residual activity [28] of the same compound?
Its residual activity is 97%.

And the residual activity [29]?
The residual activity was 100%.

And the residual activity [30]?
Its residual activity is 93%.

What about the residual activity [31] of the same compound?
Its residual activity is 68%.

And the residual activity [32]?
The residual activity was 100%.

And the residual activity [33]?
Its residual activity is 100%.

What about the residual activity [34] of the same compound?
The residual activity was 70%.

And the residual activity [35]?
Its residual activity is 100%.

What about the inhibition [36] of the same compound?
Its inhibition is 16.2%.

What about the residual activity [37] of the same compound?
The residual activity was 93%.

What about the residual activity [38] of the same compound?
The residual activity was 80%.

And the residual activity [39]?
The residual activity was 93%.

And the residual activity [40]?
Its residual activity is 100%.

What about the residual activity [41] of the same compound?
Its residual activity is 100%.

What about the residual activity [42] of the same compound?
The residual activity was 100%.
